Source: BindingDB's records for doi:10.1016/j.bmcl.2016.07.066 (Presidio Pharmaceuticals, 2016)

Columns and labels:
[1] = Inhibition of HCV genotype 3a replicons NS5A infected in human Huh7 cells by luciferase reporter gene assay
[2] = Inhibition of HCV genotype 1b replicons NS5A infected in human Huh7 cells by luciferase reporter gene assay
[3] = Inhibition of HCV genotype 1a replicons NS5A infected in human Huh7 cells by luciferase reporter gene assay
[4] = Inhibition of HCV genotype 3a replicon NS5A
[5] = Inhibition of HCV genotype 1a replicon NS5A S2204I mutant infected in human Huh7 cells
[6] = Inhibition of HCV genotype 1b replicon NS5A S2204I mutant infected in human Huh7 cells

## COC(=O)N[C@H](NC(=O)N1CCC[C@H]1c1nc2ccc(-c3ccc4cc(-c5cnc([C@@H]6CCCN6C(=O)[C@@H](NC(=O)OC)C6CCOCC6)[nH]5)ccc4c3)cc2[nH]1)C1CCOCC1
[1]
  EC50: 1.1 nM
[2]
  EC50: 0.113 nM
[3]
  EC50: 0.13 nM

## COC(=O)N[C@H](NC(=O)N1CCC[C@H]1c1nc2ccc(-c3ccc4cc(-c5cnc([C@@H]6CCCN6C(=O)[C@H](NC(=O)OC)c6ccccc6)[nH]5)ccc4c3)cc2[nH]1)C(C)C
[1]
  EC50: 0.03 nM
[2]
  EC50: 0.014 nM
[3]
  EC50: 0.22 nM

## COC(=O)N[C@H](NC(=O)N1CCC[C@H]1c1nc2ccc(-c3ccc4cc(-c5cnc([C@@H]6CCCN6C(=O)[C@@H](NC(=O)OC)[C@@H](C)OC)[nH]5)ccc4c3)cc2[nH]1)C(C)C
[1]
  EC50: 1.6 nM
[2]
  EC50: 0.022 nM
[3]
  EC50: 0.1 nM

## COC(=O)N[C@H](NC(=O)N1CCC[C@H]1c1nc2ccc(-c3ccc4cc(-c5cnc([C@@H]6CCCN6C(=O)[C@@H](NC(=O)OC)[C@@H](C)OC)[nH]5)ccc4c3)cc2[nH]1)[C@@H](C)OC
[1]
  EC50: 1.5 nM
[2]
  EC50: 0.047 nM
[3]
  EC50: 0.13 nM

## COC(=O)N[C@H](NC(=O)N1CCC[C@H]1c1nc2ccc(-c3ccc4cc(-c5cnc([C@@H]6CCCN6C(=O)[C@@H](NC(=O)OC)C(C)C)[nH]5)ccc4n3)cc2[nH]1)C(C)C
[1]
  EC50: 1.1 nM
[2]
  EC50: 0.042 nM
[3]
  EC50: 0.26 nM

## COC(=O)N[C@H](NC(=O)N1CCC[C@H]1c1nc2cnc(-c3ccc4cc(-c5cnc([C@@H]6CCCN6C(=O)[C@@H](NC(=O)OC)C(C)C)[nH]5)ccc4c3)cc2[nH]1)C(C)C
[1]
  EC50: 15 nM
[2]
  EC50: 0.052 nM
[3]
  EC50: 1.2 nM

## COC(=O)N[C@@H](NC(=O)N1CCC[C@H]1c1nc2ccc(-c3ccc4cc(-c5cnc([C@@H]6CCCN6C(=O)[C@@H](NC(=O)OC)C(C)C)[nH]5)ccc4c3)cc2[nH]1)c1ccccc1
[1]
  EC50: 0.06 nM
[2]
  EC50: 0.011 nM
[3]
  EC50: 0.11 nM

## COC(=O)N[C@H](NC(=O)N1CCC[C@H]1c1nc2ccc(-c3ccc4cc(-c5cnc([C@@H]6CCCN6C(=O)[C@@H](NC(=O)OC)C(C)C)[nH]5)ccc4c3)cc2[nH]1)C1CCOCC1
[1]
  EC50: 0.86 nM
[2]
  EC50: 0.023 nM
[3]
  EC50: 0.05 nM

## CC[C@H](C)[C@H](NC(=O)OC)NC(=O)N1CCC[C@H]1c1nc2ccc(-c3ccc4cc(-c5cnc([C@@H]6CCCN6C(=O)[C@@H](NC(=O)OC)[C@@H](C)OC)[nH]5)ccc4c3)cc2[nH]1
[1]
  EC50: 1 nM
[2]
  EC50: 0.015 nM
[3]
  EC50: 0.07 nM

## CC[C@H](C)[C@H](NC(=O)OC)NC(=O)N1CCC[C@H]1c1nc2ccc(-c3ccc4cc(-c5cnc([C@@H]6CCCN6C(=O)[C@@H](NC(=O)OC)[C@@H](C)CC)[nH]5)ccc4c3)cc2[nH]1
[1]
  EC50: 2.3 nM
[2]
  EC50: 0.015 nM
[3]
  EC50: 0.11 nM

## COC(=O)N[C@H](NC(=O)N1CCC[C@H]1c1ncc(-c2ccc(-c3ccc(-c4cnc([C@@H]5CCCN5C(=O)[C@@H](NC(=O)OC)C(C)C)[nH]4)cc3)cc2)[nH]1)C(C)C
[4]
  EC50: 0.146 nM
[5]
  EC50: 0.05 nM
[6]
  EC50: 0.009 nM
[1]
  EC50: 0.67 nM
[2]
  EC50: 0.073 nM
[3]
  EC50: 0.14 nM

## COC(=O)N[C@H](NC(=O)N1CCC[C@H]1c1nc2ccc(-c3ccc4cc(-c5cnc([C@@H]6CCCN6C(=O)[C@@H](NC(=O)OC)C(C)C)[nH]5)ccc4c3)nc2[nH]1)C(C)C
[1]
  EC50: 2.1 nM
[2]
  EC50: 0.025 nM
[3]
  EC50: 0.08 nM

## COC(=O)N[C@H](NC(=O)N1CCC[C@H]1c1nc2ccc(-c3ccc4cc(-c5cnc([C@@H]6CCCN6C(=O)[C@@H](NC(=O)OC)C6CCOCC6)[nH]5)ccc4c3)cc2[nH]1)C(C)C
[1]
  EC50: 0.89 nM
[2]
  EC50: 0.03 nM
[3]
  EC50: 0.08 nM

## COC(=O)N[C@H](NC(=O)N1CCC[C@H]1c1nc2ccc(-c3ccc4cc(-c5cnc([C@@H]6CCCN6C(=O)[C@@H](NC(=O)OC)C6CCCC6)[nH]5)ccc4c3)cc2[nH]1)C1CCCC1
[1]
  EC50: 2.4 nM
[2]
  EC50: 0.003 nM
[3]
  EC50: 0.05 nM

## CC[C@@H](C)[C@H](NC(=O)OC)NC(=O)N1CCC[C@H]1c1nc2ccc(-c3ccc4cc(-c5cnc([C@@H]6CCCN6C(=O)[C@@H](NC(=O)OC)[C@H](C)CC)[nH]5)ccc4c3)cc2[nH]1
[1]
  EC50: 9.5 nM
[2]
  EC50: 0.009 nM
[3]
  EC50: 0.6 nM

## COC(=O)N[C@H](NC(=O)N1CCC[C@H]1c1nc2ncc(-c3ccc4cc(-c5cnc([C@@H]6CCCN6C(=O)[C@@H](NC(=O)OC)C(C)C)[nH]5)ccc4c3)cc2[nH]1)C(C)C
[1]
  EC50: 6.6 nM
[2]
  EC50: 0.026 nM
[3]
  EC50: 0.23 nM
